“Also recorded” adds a separate entry of the source.

Consider 3 molecules from US20210275514A1, “COMPOUNDS FOR USE IN TREATING KIDNEY DISORDERS” (Hoffmann-La Roche Inc., priority 2018, published 2021).

Data set [1] has as its system ADR-induced nephropathy in Balb/c mice. Description: Adriamycin-induced kidney damage, second experiment, 28 days. Particulars: for Albuminuria / Body weight loss: 4 weeks after ADR; for TOTAL CHOL (blood) / TRIGLYCERIDES (blood): 28 days after ADR injection. The format is in vivo, mouse. The method, then: A second experiment was repeated to confirm the improvement of renal function attained with the doses of Cpd A and G in the first experiment. Briefly, 30 female Balb/c mice of 8 weeks age were injected with 12 mg/Kg of ADR by via tail vein and the mice were randomly distributed into 5 groups of 6 animals each. Animals were given vehicle or compounds by oral gavage once daily for 28 days starting one day after ADR injection. The following doses of compounds were tested: Cpd C, 10 mg/Kg/day; Cpd A, 30 mg/Kg/day and Cpd G, 30 mg/Kg/day and 100 mg/Kg/day. A group of 5 animals that received saline solution via tail vein injection and were treated with vehicle were used as healthy baseline control. Body weight measurements and spot urine collection was done once a week. Animals were sacrificed 28 days after ADR injection (FIG. 2).
Spot urine samples were collected for all mice at baseline and time of sacrifice. Urinary albumin and creatinine were determined using an albumin ELISA kit (Bethyl laboratories) and a colorimetric assay for creatinine determination (Stanbio). Albuminuria was calculated and expressed as μg of albumin divided by mg of creatinine. For diabetic mouse model, weight and glycaemia were measured on a bi-weekly basis.
At time of sacrifice blood was collected in heparinized tubes and mice were perfused via left ventricle perfusion with isotonic saline solution. Kidney cortex was carefully excised and further sectioned for the fallowing analysis: determination of podocyte number, lipid droplet staining, electron microscopy (EM), renal lipids content assays, PAS& HE staining for pathological evaluation.
Lipid droplet staining Filtered Oil-Red O-Isopropanol solution (Electron Microscopy Science, PA) was diluted with water (6:4). 4 μm kidney sections were incubated with 100 μl freshly prepared Oil-Red O solution (ORO) for 15 minutes and counterstained with Hematoxylin Harris Hg Free (VWR, PA) to detect lipid deposition. Glomeruli staining was evaluated using a light microscope (Olympus BX 41, Tokyo, Japan).
Renal lipids species assays. Kidney cortex sections were snap frozen and utilized for lipid extraction and cholesterol content determination. The tissue was homogenized in 2 mM potassium phosphate buffer in a glass douncer on ice. Lipids in 100 μl homogenate (˜5-10 mg tissue) were extracted with 1 ml hexane:isopropanol (3:2) for two sequential 30-minute extractions. The solvent containing lipids was then dried in Nitrogen atmosphere. Lipids were then reconstituted using isopropanol: NP-40 (9:1) and cholesterol content was quantified using the Amplex red cholesterol assay kit (Invitrogen) according to the manufacturers protocol. Triglycerides in lipid extracts were assayed with a colorimetric kit according to manufacturer's instructions (Cayman). Total cholesterol and cholesterol esters were assayed using an enzymatic fluorometric method. For total cholesterol renal lipid extracts were diluted in assay buffer (100 mM potassium phosphate, 50 mM NaCl, 5 mM cholic acid, 0.1% […], pH 7.4) and incubated with same buffer supplemented with a final concentration of 1 U/ml cholesterol oxidase, 1 U/ml cholesterol esterase, 1 U/ml horseradish peroxidase, and 75 μM Amplex Red. The reactions were incubated at 37° C. for 30 min in a black opaque 96 well plate (Greiner) and fluorescence was measured in a microplate reader (Spectramax i3X, Molecular Devices) using 530 nm excitation and 580 emission.
Cholesterol esters were assayed using a direct method described by Mizoguchi et al (Mizoguchi, 2004). Briefly 150 μl of FC decomposition reagent (45 U/ml bovine catalase and 1 U/ml cholesterol oxidase, in assay buffer described above) was added to 25 μl of sample containing up to 1 mM total cholesterol. Free cholesterol was allowed to decompose overnight at 37° C. and then 75 μl of 4× cholesterol ester detection reagent (1 U/ml cholesterol oxidase, 4 U/ml cholesterol esterase, 24 U/ml horseradish peroxidase, 300 μM Amplex Red) was added. […]

Data set [2] has as its system ABCA1. Description: ApoA1-mediated cholesterol efflux in differentiated podocytes. Format: cell-based, human. As to conditions: 18 h. On the procedure:
Human podocytes differentiated for 13 days were labeled with 1 μCi/ml of [^3H]-cholesterol in RPMI media with 2% FBS for 24 h. Cells were then washed with PBS and incubated with equilibration media (RPMI-0.2% fat free-BSA) supplemented with vehicle or compounds Cpd C (1 μM), Cpd A (1 μM, 5 μM) and Cpd G (1 μM, 5 μM, 10 μM) for 18 h. Cells were then washed with PBS, and incubated with equilibration media with or without 20 μg/ml of human ApoA1 for 18 h at 37° C., 5% CO2. Media was collected, spun at 12,000×g for 5 min and the radioactivity of the 200 μl aliquot was counted by liquid scintillation. Cells were washed with PBS, lysed with 250 μl 0.1% SDS, 0.1 M NaOH and the radioactivity in 100 μl aliquot was measured by liquid scintillation. Cholesterol efflux was calculated as the % of labeled cholesterol that moved from the cell to the media by the formula:
Efflux (%)=100×{(cpm media)/[(cpm media)+(cpm lysate)]}
ApoA1-mediated cholesterol efflux was calculated as the difference between the efflux in the presence or absence of ApoA1. All treatments were done in duplicate. More than 3 independent experiments were performed.

Data set [3] concerns ABCA1. Description: Cell fractionation, ABCA1 localization by western blot. Format: cell-based, human. Particulars: 18 h. The method, then:
14 day-differentiated podocytes were treated with compounds Cpd C (1 μM), Cpd A (5 μM) and Cpd G (10 μM) for 18 h and then washed and scraped with ice cold PBS. Cells were centrifuged at 1,000×g for 5 min, supernatant was carefully aspirated and the pellet resuspended in hypotonic buffer (15 mM KCl, 1.5 mM MgCl2, 10 mM HEPES and 1 mM DTT) supplemented with Roche's protease inhibitor cocktail. Further cell rupture was ensured by frothing in a glass douncer and two freeze and thaw cycles. Sucrose was added, 227 mM final concentration, and the cells were centrifuged at 1,000×g for 30 min at 4° C. The supernatant was then transferred to a new tube and centrifuged at 10,000×g for 15 min at 4° C. The pellet, containing the microsomal fraction was collected and the supernatant was transferred to a new tube and centrifuged at 100,000×g for 1 hr at 4° C. The pelleted plasma membrane fraction was collected and the supernatant, containing non membranous cytosolic fraction, was concentrated in Vivaspin 500 filter columns. The presence of ABCA1, and proteins known to be present at the plasma membrane (Na^+/K^+ sodium pump) and cytosol (MEK), in each fraction was verified by western blot.
Lysates, or cell fractions were incubated with buffer sample at 55° C. for 10 min under reducing conditions. A total of […] of protein in lysates, and one third of the volume collected in cell fraction preps, were separated by SDSPAGE in 4-20% gels (Biorad) and proteins were then transferred to PVDF membranes. Membranes were blocked with 5% milk and blotted with protein-specific antibodies for 18 h at 4° C. The following antibodies were used: mouse anti-ABCA1 (Abcam; 1:1,000), rabbit anti-GAPDH antibody (Millipore; 1:10,000), rabbit anti-MEK and anti-Na^+/K^+ ATPase (Cell Signaling; 1:1,000). After washing with PBS-T, membranes were incubated with anti-mouse and anti-rabbit specific antibodies conjugated to HRP (Promega) 1:10,000 in 5% milk. Membranes were washed and signal was developed using Western bright ECL substrate (Advansta).
In general terms: A western blot detects proteins with antibodies after separation by electrophoresis.

For the molecule `O=C(N[C@@H]1CCCC[C@H]1O)c1ccc(OCC(F)(F)F)c(-c2ccc(Cl)c(Cl)c2)n1` [Cpd A, 6-(3,4-Dichlorophenyl)-N-[(1R,2R)-2-hydroxycyclohexyl]-5-(2,2,2-trifluoroethoxy)pyridine-2-carboxamide], in data set [1] (30 mg/Kg once daily), the Albuminuria entry is recorded as “significantly reduce; also recorded: reduced” and the Body weight loss entry is “significantly reduce; also recorded: reduced”. In addition, in data set [1] (30 mg/Kg), the “TOTAL CHOL (blood)” value was 104.0 ± 31.6 mg/dL and the TRIGLYCERIDES (blood) was determined as 107 ± 23.9 mg/dL. Besides, the ApoA1-mediated cholesterol efflux entry in the data set with ABCA1 [2] (5 μM) was “increase ApoA1-mediated cholesterol efflux; also recorded: Significant increase”. Moreover, in the data set with ABCA1 [3] (5 μM), the “ABCA1 in the microsomal compartment” value is “Less ABCA1” and the “ABCA1 localization at the plasma membrane” value (“ABCA1 localization” below) is “increase the expression of ABCA1 at the plasma membrane; also recorded: promoted ABCA1 localization at the plasma membrane”.
Take `Cc1oc(-c2cccc(C(F)(F)F)c2)nc1Cn1c(C)cc2cc(C(O)(C(F)(F)F)C(F)(F)F)ccc21` [Cpd C, 1,1,1,3,3,3-Hexafluoro-2-{2-methyl-1-[5-methyl-2-(3-trifluoromethyl-phenyl)-oxazol-4-ylmethyl]-1H-indol-5-yl}-propan-2-ol, reference compound]: in data set [1] (10 mg/Kg), the “TOTAL CHOL (blood)” value was found to be 119.8 ± 19.9 mg/dL and the TRIGLYCERIDES (blood) turned out to be 110 ± 53.5 mg/dL. In addition, the ApoA1-mediated cholesterol efflux result in the data set with ABCA1 [2] (1 μM) was “increase ApoA1-mediated cholesterol efflux; also recorded: Significant increase”. Further, the “ABCA1 localization” value in the data set on ABCA1 [3] (1 μM) is listed as “increase the expression of ABCA1 at the plasma membrane; also recorded: promoted ABCA1 localization at the plasma membrane”.
For `O=C(N[C@@H]1CCCC[C@H]1O)c1cnc(OCC(F)(F)F)c(-c2ccc(Cl)c(Cl)c2)c1` [Cpd G, 5-(3,4-dichloro-phenyl)-N-((1R,2R)-2-hydroxy-cyclohexyl)-6-(2,2,2-trifluoro-ethoxy)-nicotinamide], in data set [1] (30 mg/Kg), the “TOTAL CHOL (blood)” value is listed as 112.0 ± 13.6 mg/dL and the TRIGLYCERIDES (blood) worked out at 120 ± 18.8 mg/dL. In data set [1] (100 mg/Kg once daily), the Albuminuria entry is “significantly reduce; also recorded: reduced” and the Body weight loss result is given as “significantly reduce; also recorded: reduced”. In addition, in data set [1] (100 mg/Kg, 28 days), the “deposition of lipid droplets in the kidneys (Oil Red O staining)” value is “significantly reduced”. For the same molecule, in data set [1] (100 mg/Kg), the “TOTAL CHOL (blood)” value came out at 101.1 ± 12.8 mg/dL and the TRIGLYCERIDES (blood) stood at 121 ± 19.3 mg/dL. Further, in data set [1] (100 mg/Kg/day, 4 weeks), the “global glomerular sclerosis (blind pathological study of kidney cortex)” value was “reduction”, the interstitial inflammation result is listed as “reduction”, the podocyte hyperplasia result is on record as “reduction” and the podocyte hypertrophy entry was “reduction”. For the same molecule, in data set [1] (100 mg/Kg/day, 4 weeks), the segmental glomerular sclerosis entry is “reduction” and the tubular microcysts result is given as “reduction”. In data set [1] (28 days, normalized to total protein), the “esterified cholesterol content in kidney cortex” value is listed as “reduces accumulation of esterified cholesterol; also recorded: significantly reduced”. For the same molecule, in data set [1] (optimal dose (100 mg/Kg), 3rd and 4th week of treatment), the physical appearance result was “better physical appearance”. Moreover, the ApoA1-mediated cholesterol efflux result in the data set on ABCA1 [2] (10 μM) is recorded as “increase ApoA1-mediated cholesterol efflux; also recorded: Significant increase”. Moreover, in the data set on ABCA1 [3] (10 μM), the “ABCA1 in the microsomal compartment” value was “Less ABCA1” and the “ABCA1 localization” value is recorded as “increase the expression of ABCA1 at the plasma membrane; also recorded: promoted ABCA1 localization at the plasma membrane”.
